Patent publication US9801872B2, “Pyridinyl and fused pyridinyl triazolone derivatives” (Takeda Pharmaceutical Company Limited, priority 2013, dated 2017)

Target: human BTK (Homo sapiens (Human), UniProt Q06187)
Experiment: BTK inhibition: BTK-mediated phosphorylation of FAM-labeled substrate 5-FAM-[…]-NH2 (Caliper LC-3000)
Assay type: biochemical
Details: for BTK Inhibition (pIC50): residues 382 to 659 of human BTK, 60 minutes at room temperature, pIC50 = -log(IC50), IC50 molar
From the text: The activity of compounds as BTK inhibitors may be determined by a variety of methods, including in vitro and in vivo methods.
This construct engineers an in-frame translational fusion with the Glutathione-S-Transferase (GST) protein for use in affinity purification. The fusion protein derived from this construct contains a protease recognition sequence to liberate the BTK from the GST affinity tag. High-titer baculoviral stocks, generated using the Bac-to-Bac® system (Invitrogen), are used to express the recombinant protein in Spodoptera frugiperda Sf9 cells in 10 L Wave bags. Recombinant proteins are isolated from cellular extracts by passage over Glutathione Sepharose 4B (GE Healthcare) and the BTK moiety is released from the GST affinity tag by treatment with PreScission protease. The BTK recombinant protein is further purified by size exclusion chromatography (HiLoad 16/60 Superdex 200, GE Healthcare) in a buffer containing 20 mM Hepes (pH 7.4), 50 mM NaCl, 10 mM MgCl2, 0.25 mM TCEP and 0.1 mM EDTA. The purity of the fractions is assessed by SDS PAGE and the peak protein fractions are pooled and concentrated using Amicon Ultra-15 Centrifugal Filter Devices (Millipore).
The inhibitory properties of compounds relative to BTK is determined using a black 384-well-plate format in a buffer which contains 50 mM Hepes, 10 mM NaCl, 10 mM MgCl2, 0.2 mM EDTA, 0.01% Brij35®, 1 mM DTT, and 0.1 mg/mL BSA at pH 7.3. The test compound is prepared in DMSO using 2-fold serial dilutions for 11 data points, which are added to the buffer so that each dilution contains 3% DMSO. […] The reaction mixtures are incubated at room temperature for 60 minutes and then quenched by adding 25 μL of 50 mM EDTA. To quantify the fluorescent-labeled substrate and product following reaction, the test plate is loaded on a Caliper LC-3000, which measures percent of conversion by microfluidic-based separation.
The compounds were tested in accordance with the assay described on page 42 of the specification.

Chain of human BTK (Q06187 382-659): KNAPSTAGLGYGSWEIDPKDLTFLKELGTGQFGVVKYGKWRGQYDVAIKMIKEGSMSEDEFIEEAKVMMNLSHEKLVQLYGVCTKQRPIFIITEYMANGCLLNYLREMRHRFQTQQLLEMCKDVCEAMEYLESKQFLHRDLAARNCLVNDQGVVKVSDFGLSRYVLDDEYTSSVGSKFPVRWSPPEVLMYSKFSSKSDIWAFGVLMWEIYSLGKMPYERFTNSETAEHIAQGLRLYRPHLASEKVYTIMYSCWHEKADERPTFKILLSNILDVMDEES

Row | Structure (SMILES) | BTK Inhibition (pIC50) | IC50 (read-out: BTK Inhibition (pIC50) (converted)) [nM]
1 | C=CC(=O)N1CCC[C@@H]1COc1nc(-c2n[nH]c(=O)[nH]2)cc2ccccc12 [Example 9, (R)-3-(1-((1-acryloylpyrrolidin-2-yl)methoxy)isoquinolin-3-yl)-1H-1,2,4-triazol-5(4H)-one] | >7.9 | –
2 | C=CC(=O)N1CC[C@H](Nc2nc(-c3n[nH]c(=O)[nH]3)cc3cccc(OC)c23)C1 [Example 29, (S)-3-(1-((1-acryloylpyrrolidin-3-yl)amino)-8-methoxyisoquinolin-3-yl)-1H-1,2,4-triazol-5(4H)-one] | >8.6 | –
3 | C=CC(=O)N1C[C@H](Oc2nc(-c3n[nH]c(=O)[nH]3)cc3ccccc23)[C@@H](C)C1 (racemic) [Example 19, 3-(1-(((3R,4S)-1-acryloyl-4-methylpyrrolidin-3-yl)oxy)isoquinolin-3-yl)-1H-1,2,4-triazol-5(4H)-one and 3-(1-(((3S,4R)-1-acryloyl-4-methylpyrrolidin-3-yl)oxy)isoquinolin-3-yl)-1H-1,2,4-triazol-5(4H)-one (mixture of enantiomers)] | – | < 6.31
4 | C=CC(=O)N1C[C@@H](C)[C@H](Oc2nc(-c3n[nH]c(=O)[nH]3)cc3ccccc23)C1 [Example 21, 3-(1-(((3S,4R)-1-acryloyl-4-methylpyrrolidin-3-yl)oxy)isoquinolin-3-yl)-1H-1,2,4-triazol-5(4H)-one] | 6.9 | –
5 | C/C=C/C(=O)N1CC[C@H](Nc2nc(-c3n[nH]c(=O)[nH]3)cc3ccccc23)C1 [Example 15, (S,E)-3-(1-((1-(but-2-enoyl)pyrrolidin-3-yl)amino)isoquinolin-3-yl)-1H-1,2,4-triazol-5(4H)-one] | 7.6 | –
6 | C=CC(=O)N1CC[C@H](Oc2nc(-c3n[nH]c(=O)[nH]3)cc3cccc(Cl)c23)C1 [Example 27, (S)-3-(1-((1-acryloylpyrrolidin-3-yl)oxy)-8-chloroisoquinolin-3-yl) -1H-1,2,4-triazol-5(4H)-one] | >8.9 | –
7 | O=C(CCl)N1CC[C@H](Nc2nc(-c3n[nH]c(=O)[nH]3)cc3ccccc23)C1 [Example 34, (S)-5-(1-((1-(2-chloroacetyl)pyrrolidin-3-yl)amino)isoquinolin-3-yl)-2,4-dihydro-3H-1,2,4-triazol-3-one] | >8.6 | –
8 | C=CC(=O)N1CC[C@@H](Oc2nc(-c3n[nH]c(=O)[nH]3)cc3ccccc23)C1 [Example 2, (R)-3-(1-((1-acryloylpyrrolidin-3-yl)oxy)isoquinolin-3-yl)-1H-1,2,4-triazol-5(4H)-one] | 7.1 | –
9 | C=C(C)C(=O)N1CC[C@@H](Oc2nc(-c3n[nH]c(=O)[nH]3)cc3ccccc23)C1 [Example 1, (R)-3-(1-((1-methacryloylpyrrolidin-3-yl)oxy)isoquinolin-3-yl)-1H-1,2,4-triazol-5(4H)-one] | 6.7 | –
10 | C=CC(=O)N1CCC[C@H]1COc1nc(-c2n[nH]c(=O)[nH]2)cc2ccccc12 [Example 7, (S)-3-(1-((1-acryloylpyrrolidin-2-yl)methoxy)isoquinolin-3-yl)-1H-1,2,4-triazol-5(4H)-one] | 8.0 | –
11 | C=CC(=O)N1CC[C@H](Oc2nc(-c3n[nH]c(=O)[nH]3)cc3ccc(F)cc23)C1 [Example 18, (S)-3-(1-((1-acryloylpyrrolidin-3-yl)oxy)-7-fluoroisoquinolin-3-yl)-1H-1,2,4-triazol-5(4H)-one] | >8.2 | –
12 | C=CC(=O)N1CC[C@H](Oc2cccc(-c3n[nH]c(=O)[nH]3)n2)C1 [Example 31, (S)-3-(6-((1-acryloylpyrrolidin-3-yl)oxy)pyridin-2-yl)-1H-1,2,4-triazol-5(4H)-one] | 7.2 | –
13 | C=CC(=O)N1C[C@H](Oc2nc(-c3n[nH]c(=O)[nH]3)cc3ccccc23)[C@@H](C)C1 [Example 20, 3-(1-(((3R,4S)-1-acryloyl-4-methylpyrrolidin-3-yl)oxy)isoquinolin-3-yl)-1H-1,2,4-triazol-5(4H)-one] | >8.6 | –
14 | C=CC(=O)N1CC[C@H](Nc2nc(-c3n[nH]c(=O)[nH]3)cc3ccccc23)C1 [Example 8, (S)-3-(1-((1-acryloylpyrrolidin-3-yl)amino)isoquinolin-3-yl)-1H-1,2,4-triazol-5(4H)-one] | >8.6 | –
15 | C=CC(=O)N1CC[C@H](N(C)c2nc(-c3n[nH]c(=O)[nH]3)cc3ccccc23)C1 [Example 11, (S)-3-(1-((1-acryloylpyrrolidin-3-yl)(methyl)amino)isoquinolin-3-yl)-1H-1,2,4-triazol-5(4H)-one] | 8.5 | –
16 | C=CC(=O)N1CC[C@H](Oc2nc(-c3n[nH]c(=O)[nH]3)cc3cccnc23)C1 [Example 16, (S)-3-(8-((1-acryloylpyrrolidin-3-yl)oxy)-1,7-naphthyridin-6-yl)-1H-1,2,4-triazol-5(4H)-one] | >8.5 | –
17 | C=CC(=O)N1CC[C@H](Nc2nc(-c3n[nH]c(=O)[nH]3)cc3cccnc23)C1 [Example 17, (S)-3-(8-((1-acryloylpyrrolidin-3-yl)amino)-1,7-naphthyridin-6-yl)-1H-1,2,4-triazol-5(4H)-one] | >8.6 | –
18 | C/C=C/C(=O)N1CC[C@@H](Oc2nc(-c3n[nH]c(=O)[nH]3)cc3ccccc23)C1 [Example 3, (R,E)-3-(1-((1-(but-2-enoyl)pyrrolidin-3-yl)oxy)isoquinolin-3-yl)-1H-1,2,4-triazol-5(4H)-one] | 6.5 | –
19 | C=CC(=O)N1CC[C@H](Oc2nc(-c3n[nH]c(=O)[nH]3)ccc2C)C1 [Example 32, (S)-3-(6-((1-acryloylpyrrolidin-3-yl)oxy)-5-methylpyridin-2-yl)-1H-1,2,4-triazol-5(4H)-one] | 8.3 | –
20 | C=CC(=O)N1CC[C@H](Nc2nc(-c3n[nH]c(=O)[nH]3)cc3cccc(Cl)c23)C1 [Example 28, (S)-3-(1-((1-acryloylpyrrolidin-3-yl)amino)-8-chloroisoquinolin-3-yl)-1H-1,2,4-triazol-5(4H)-one] | >8.6 | –
21 | C=C(C)C(=O)N1CC[C@H](Nc2nc(-c3n[nH]c(=O)[nH]3)cc3ccccc23)C1 [Example 10, (S)-3-(1-((1-methacryloylpyrrolidin-3-yl)amino)isoquinolin-3-yl)-1H-1,2,4-triazol-5(4H)-one] | 7.5 | –
22 | C=CC(=O)N1CC[C@H](OCc2nc(-c3n[nH]c(=O)[nH]3)cc3ccccc23)C1 [Example 13, (S)-3-(1-(((1-acryloylpyrrolidin-3-yl)oxy)methyl)isoquinolin-3-yl)-1H-1,2,4-triazol-5(4H)-one] | >8.0 | –
23 | C=CC(=O)N1CCC[C@H](Oc2nc(-c3n[nH]c(=O)[nH]3)cc3ccccc23)C1 [Example 35, (S)-5-(1-((1-acryloylpiperidin-3-yl)oxy)isoquinolin-3-yl)-2,4-dihydro-3H-1,2,4-triazol-3-one] | 7.5 | –
24 | C=CC(=O)N1CC[C@H](Nc2nc(-c3n[nH]c(=O)[nH]3)cc3cccc(F)c23)C1 [Example 23, (S)-3-(1-((1-acryloylpyrrolidin-3-yl)amino)-8-fluoroisoquinolin-3-yl)-1H-1,2,4-triazol-5(4H)-one] | >8.9 | –
25 | C=CC(=O)N1CC[C@H](Nc2nc(-c3n[nH]c(=O)[nH]3)cc3ccc(F)cc23)C1 [Example 25, (S)-3-(1-((1-acryloylpyrrolidin-3-yl)amino)-7-fluoroisoquinolin-3-yl)-1H-1,2,4-triazol-5(4H)-one] | >8.6 | –
26 | O=C(CCl)N1CC[C@H](Oc2nc(-c3n[nH]c(=O)[nH]3)cc3ccccc23)C1 [Example 33, (S)-5-(1-((1-(2-chloroacetyl)pyrrolidin-3-yl)oxy)isoquinolin-3-yl)-2,4-dihydro-3H-1,2,4-triazol-3-one] | >8.2 | –
27 | C=CC(=O)N1CC[C@H](Oc2cc(C)cc(-c3n[nH]c(=O)[nH]3)n2)C1 [Example 30, (S)-3-(6-((1-acryloylpyrrolidin-3-yl)oxy)-4-methylpyridin-2-yl)-1H-1,2,4-triazol-5(4H)-one] | >8.6 | –
28 | C=CC(=O)N1CCC[C@H]1CNc1nc(-c2n[nH]c(=O)[nH]2)cc2ccccc12 [Example 6, (S)-3-(1-(((1-acryloylpyrrolidin-2-yl)methyl)amino)isoquinolin-3-yl)-1H-1,2,4-triazol-5(4H)-one] | 8.0 | –
29 | C=CC(=O)N1CC[C@H](Nc2nc(-c3n[nH]c(=O)[nH]3)cc3ccc(Cl)cc23)C1 [Example 26, (S)-3-(1-((1-acryloylpyrrolidin-3-yl)amino)-7-chloroisoquinolin-3-yl)-1H-1,2,4-triazol-5 (4H)-one] | >8.6 | –
30 | C=CC(=O)N1CC[C@H](Oc2nc(-c3n[nH]c(=O)[nH]3)cc3ccccc23)C1 [Example 5, (S)-3-(1-((1-acryloylpyrrolidin-3-yl)oxy)isoquinolin-3-yl)-1H-1,2,4-triazol-5(4H)-one] | >8.7 | –
